Data published in the NIST ThermoML archive (doi:10.1007/s10765-006-0047-0).

Legend:
[1] = 298.15 K, 101.33 kPa, Liquid; for mass density: Pycnometric method; for speed of sound: Sing-around technique in a fixed-path interferometer
[2] = xn = mol fraction of the nth substance listed; settings: 298.15 K, 101 kPa, Liquid, Sing-around technique in a fixed-path interferometer

COCCOCCO [2-(2-methoxyethoxy)ethanol]
[1]
Settings | mass density [kg/m3] | speed of sound [m/s]
– | 1016.43 | 1417.2

COCCOCCO [2-(2-methoxyethoxy)ethanol] + CCCN
[2]
Settings | speed of sound [m/s]
x1 = 0.0055 | 1215.3
x1 = 0.0112 | 1217
x1 = 0.024 | 1220.2
x1 = 0.0454 | 1225.5
x1 = 0.0749 | 1233.3
x1 = 0.0948 | 1238.6
x1 = 0.1292 | 1249.1
x1 = 0.1834 | 1264.6
x1 = 0.2523 | 1284.5
x1 = 0.309 | 1301.5
x1 = 0.3831 | 1320.8
x1 = 0.4484 | 1337
x1 = 0.5041 | 1349.4
x1 = 0.5603 | 1360.6
x1 = 0.6353 | 1373.2
x1 = 0.6792 | 1380
x1 = 0.7209 | 1385.9
x1 = 0.7775 | 1392.7
x1 = 0.8121 | 1397.5
x1 = 0.8725 | 1404.9
x1 = 0.912 | 1408.8
x1 = 0.9332 | 1411.2
x1 = 0.9535 | 1413.1
x1 = 0.9852 | 1416.5
x1 = 0.9983 | 1417.1

COCCOCCOCCO [2-[2-(2-methoxyethoxy)ethoxy]ethanol]
[1]
Settings | mass density [kg/m3] | speed of sound [m/s]
– | 1043.06 | 1459

COCCOCCOCCO [2-[2-(2-methoxyethoxy)ethoxy]ethanol] + CCCN
[2]
Settings | speed of sound [m/s]
x1 = 0.0039 | 1216.1
x1 = 0.0134 | 1219.9
x1 = 0.0327 | 1226.9
x1 = 0.0519 | 1234.2
x1 = 0.0799 | 1245.4
x1 = 0.108 | 1258
x1 = 0.1484 | 1274.9
x1 = 0.2102 | 1299.7
x1 = 0.2743 | 1324.5
x1 = 0.341 | 1347.6
x1 = 0.3879 | 1361.8
x1 = 0.4351 | 1375
x1 = 0.5433 | 1398.7
x1 = 0.5904 | 1407.5
x1 = 0.6475 | 1416
x1 = 0.6873 | 1422.1
x1 = 0.7353 | 1429.5
x1 = 0.7806 | 1434.9
x1 = 0.8226 | 1441.1
x1 = 0.8873 | 1448.3
x1 = 0.9295 | 1452.6
x1 = 0.9565 | 1456.2
x1 = 0.9751 | 1457
x1 = 0.9898 | 1458.5
x1 = 0.9973 | 1458.7

COCCO [2-methoxyethan-1-ol]
[1]
Settings | mass density [kg/m3] | speed of sound [m/s]
– | 960.32 | 1343.3

CCCCOCCOCCO [3,6-dioxa-1-decanol]
[1]
Settings | mass density [kg/m3] | speed of sound [m/s]
– | 947.98 | 1358.9

CCCCOCCOCCO [3,6-dioxa-1-decanol] + CCCN
[2]
Settings | speed of sound [m/s]
x1 = 0.0052 | 1215.5
x1 = 0.0133 | 1218.1
x1 = 0.0295 | 1223
x1 = 0.0505 | 1228.7
x1 = 0.0779 | 1236.9
x1 = 0.1487 | 1256.7
x1 = 0.2053 | 1272.3
x1 = 0.2645 | 1286.7
x1 = 0.318 | 1298.6
x1 = 0.378 | 1310.2
x1 = 0.4304 | 1319.4
x1 = 0.4767 | 1326
x1 = 0.5226 | 1331.6
x1 = 0.5715 | 1336.8
x1 = 0.6306 | 1342.1
x1 = 0.6855 | 1346.2
x1 = 0.7347 | 1349.4
x1 = 0.7728 | 1351.3
x1 = 0.8152 | 1353.3
x1 = 0.87 | 1355.9
x1 = 0.9073 | 1356.7
x1 = 0.9289 | 1357.7
x1 = 0.9504 | 1358.3
x1 = 0.9663 | 1358.5
x1 = 0.9813 | 1358.7

CCOCCOCCO [3,6-dioxa-1-octanol]
[1]
Settings | mass density [kg/m3] | speed of sound [m/s]
– | 983.84 | 1377.3

CCOCCOCCO [3,6-dioxa-1-octanol] + CCCN
[2]
Settings | speed of sound [m/s]
x1 = 0.0021 | 1215.3
x1 = 0.0048 | 1215.4
x1 = 0.0177 | 1218.7
x1 = 0.0374 | 1223.3
x1 = 0.0647 | 1230.5
x1 = 0.0909 | 1236.8
x1 = 0.1313 | 1247.7
x1 = 0.1669 | 1257.2
x1 = 0.2491 | 1278.4
x1 = 0.3135 | 1293.9
x1 = 0.3898 | 1310.7
x1 = 0.4519 | 1322.7
x1 = 0.4879 | 1329.1
x1 = 0.5348 | 1337.5
x1 = 0.5888 | 1344.5
x1 = 0.6314 | 1349.7
x1 = 0.6808 | 1355.5
x1 = 0.7314 | 1359.9
x1 = 0.7778 | 1363.7
x1 = 0.8381 | 1367.3
x1 = 0.876 | 1370
x1 = 0.9121 | 1371.4
x1 = 0.9343 | 1373.1
x1 = 0.9624 | 1374.6
x1 = 0.9887 | 1375.9
x1 = 0.9971 | 1376.8

CCCCOCCOCCOCCCC [5,8,11-trioxapentadecane]
[1]
Settings | mass density [kg/m3] | speed of sound [m/s]
– | 878.55 | 1270.1

CCCCOCCOCCOCCCC [5,8,11-trioxapentadecane] + CCCN
[2]
Settings | speed of sound [m/s]
x1 = 0.0033 | 1215.3
x1 = 0.0114 | 1215.5
x1 = 0.033 | 1217.3
x1 = 0.0476 | 1218.4
x1 = 0.0724 | 1221
x1 = 0.0955 | 1222.8
x1 = 0.139 | 1227.3
x1 = 0.1781 | 1231.7
x1 = 0.2413 | 1237.2
x1 = 0.3004 | 1242
x1 = 0.3569 | 1245.8
x1 = 0.4169 | 1249.5
x1 = 0.4689 | 1251.9
x1 = 0.5355 | 1255.2
x1 = 0.5925 | 1258.2
x1 = 0.6493 | 1260.8
x1 = 0.6979 | 1262.9
x1 = 0.7548 | 1264.7
x1 = 0.8153 | 1266.6
x1 = 0.8686 | 1268.2
x1 = 0.9 | 1269
x1 = 0.9241 | 1269.5
x1 = 0.9526 | 1269.9
x1 = 0.977 | 1270.1
x1 = 0.991 | 1270.3

CCOCCOCCOCC [diethylene glycol diethyl ether]
[1]
Settings | mass density [kg/m3] | speed of sound [m/s]
– | 902.76 | 1241.9

CCOCCOCCOCC [diethylene glycol diethyl ether] + CCCN
[2]
Settings | speed of sound [m/s]
x1 = 0.0035 | 1214.7
x1 = 0.0108 | 1214.5
x1 = 0.025 | 1214
x1 = 0.0591 | 1214.1
x1 = 0.0865 | 1214.7
x1 = 0.1134 | 1215.2
x1 = 0.1662 | 1217.3
x1 = 0.2091 | 1218.8
x1 = 0.2738 | 1221.4
x1 = 0.3214 | 1223.8
x1 = 0.3658 | 1225.7
x1 = 0.3939 | 1227
x1 = 0.4846 | 1230.5
x1 = 0.5313 | 1232.3
x1 = 0.5713 | 1233.8
x1 = 0.6319 | 1235.6
x1 = 0.6754 | 1236.7
x1 = 0.7192 | 1238.1
x1 = 0.7754 | 1239.4
x1 = 0.8066 | 1240.1
x1 = 0.8729 | 1241.7
x1 = 0.9037 | 1242.1
x1 = 0.9238 | 1242.2
x1 = 0.9448 | 1242.3
x1 = 0.9638 | 1242.4
x1 = 0.9835 | 1242.5
x1 = 0.9916 | 1242.2

CCCN [propan-1-amine]
[1]
Settings | mass density [kg/m3] | speed of sound [m/s]
– | 712.25 | 1215.2

CCCN [propan-1-amine] + COCCO
[2]
Settings | speed of sound [m/s]
x2 = 0.0036 | 1215.3
x2 = 0.0101 | 1216.4
x2 = 0.0272 | 1218.3
x2 = 0.047 | 1221.7
x2 = 0.0831 | 1227.4
x2 = 0.1175 | 1232.5
x2 = 0.1521 | 1238.8
x2 = 0.1977 | 1247
x2 = 0.2378 | 1254
x2 = 0.2982 | 1265.6
x2 = 0.3629 | 1276.6
x2 = 0.4188 | 1285.8
x2 = 0.474 | 1294.1
x2 = 0.5181 | 1299.6
x2 = 0.5862 | 1307.8
x2 = 0.6459 | 1314.6
x2 = 0.7102 | 1321.5
x2 = 0.799 | 1329.7
x2 = 0.8253 | 1331.6
x2 = 0.8642 | 1334.2
x2 = 0.8918 | 1336.2
x2 = 0.908 | 1338
x2 = 0.9316 | 1339.5
x2 = 0.9621 | 1341.5
x2 = 0.9824 | 1342.9
x2 = 0.9932 | 1343.4
x2 = 0.9989 | 1343.5
